The record followed here is patent US9840500B2, “Compounds as dual inhibitors of histone methyltransferases and DNA methyltransferases” (FUNDACIÓN PARA LA INVESTIGACIÓN MÉDICA APLICADA, priority 2014, dated 2017).

Molecules are shown by their SMILES. Where only a bound is given, the exact number is not on record here.

The target of one assay is DNMT3A (Homo sapiens, UniProt Q9Y6K1). Kind of assay: DNMT3A inhibition reported in the literature. In kind it is biochemical. The following applies: read-out: IC50 against DNMT3A.
The test system of assay [1] is BJ human fibroblasts. The experiment in a line: iPSC reprogramming of BJ human fibroblasts with lentiviral vectors (O:S:K:M). The format is cell-based. To be noted: compound concentration 200 nM. From the text:
The used reprogramming system consisted in four independent doxycycline inducible lentiviral vectors (FUW-Tet-O based vectors) coding for the human OCT4 (addgene, ref#20726), SOX2 (addgene, ref#20724), KLF4 (addgene, ref#20725) and cMYC (addgene, ref#20723) transcription factors (O:S:K:M) Vesicular Stomatitis Virus G (VSVG)-coated lentiviruses were generated in 293T cells as described previously (Tiscornia et al., Nat Protoc. 2006; 1(1):241-5.). Briefly, 293T cells (ATCC, CRL-3216) were transfected with FUW-TetO lentiviral vectors referred above along with packaging plasmids psPAX2 (addgene, ref#12260) and pMD2.G (addgene, ref#12259) under the same conditions as those disclosed by Tiscornia et al, supra. […]
• Day 2: Second infection of BJ cells (same conditions that first infection). • Day 3: Replate BJ cells in 2×175 cm^2 culture flask in fresh FCM. • Day 4: Incubate 1×175 cm^2 flask with 0.2 μM or 0.1 μM of test compound and the other flask just with FCM. Compound concentrations were selected according to the determined GI50 in BJ human fibroblasts, in order to avoid cytotoxicity. […]
Reprogramming efficiency was quantified four weeks after infection. Presence of ESC-like colonies was detected by alkaline phosphatase (AP) staining using Leukocyte Alkaline Phosphatase Kit (Sigma) according to the manufacturer's protocol.

The target of the next assay is DNMT1 (Homo sapiens, UniProt P26358). The experiment in a line: DNMT1 inhibition reported in the literature. The format is biochemical. To be noted: read-out: IC50 against DNMT1.
A further assay relates to JJN3. Kind of assay: Cell proliferation assay, JJN3 (MM). The format is cell-based. To be noted: Homo sapiens, JJN-3, Table 5 comparison. How it is done: (§1) Cell proliferation was analyzed after 48 hours of in vitro treatment using the CellTiter 96 Aqueous One Solution Cell Proliferation Assay (Promega, Madison, Wis.). This is a colorimetric method for determining the number of viable cells in proliferation.
(§2) For the assay, suspension cells were cultured by triplicate at a density of 1×10^6 cells/ml in 96-well plates (100.000 cells/well, 100 μl/well), except for OCILY-3 and OCILY-10 cell lines which were cultured at a density of 0.5×10^6 cells/ml (50.000 cells/well, 100 μl/well) and for HepG2, Hep3B and PLC/PRF/5 cell ines which were cultured at a density of 3000 cells/well, 100 μl/well). Adherent cells were obtained from 80-90% confluent flasks and 100 μl of cells were seeded at a density of 5000 cells/well in 96-well plates by triplicate. Before addition of the compounds, adherent cells were allowed to attach to the bottom of the wells for 12 hours. In all cases, only the 60 inner wells were used to avoid any border effects.
(§3) After 48 hours of treatment, plates with suspension cells were centrifuged at 800 g for 10 minutes and medium was removed. The plates with adherent cells were flicked to remove medium. Then, cells were incubated with 100 ul/well of medium and 20 ul/well of CellTiter 96 Aqueous One Solution reagent. After 1-3 hours of incubation at 37° C., absorbance was measured at 490 nm in a 96-well plate reader. The background absorbance was measured in wells with only cell line medium and solution reagent. Data was calculated as a percentage of total absorbance of treated cell/absorbance of non treated cells.

For another assay, the system named is CEMO-1. The experiment in a line: Cell proliferation assay, CEMO-1 (ALL). In kind it is cell-based, human. To be noted: Homo sapiens; ALL; Table 5 comparison.
For another assay, the system named is MV411. The experiment in a line: Cell proliferation assay, MV411 / MV4-11 (AML). In kind it is cell-based. To be noted: Homo sapiens, MV4-11, Table 5 comparison. How it is done:
as §1, §2, §3
(§4) Compounds 3-04 and 3-07 were tested against different solid tumour and oncohematological cell lines using the cell proliferation protocol described above.

In assay [2] the test system is BJ human fibroblasts. The experiment in a line: iPSC reprogramming of BJ human fibroblasts with retroviral vectors (O:S). The format is cell-based. To be noted: compound concentration 200 nM.
A further assay deals with U266. Kind of assay: Cell proliferation assay, U266 (MM). The following applies: Homo sapiens, U-266, Table 5 comparison. The format is cell-based. How it is done:
as §1, §2, §3

In the next assay the test system is LAL-CUN-2. The experiment in a line: Cell proliferation assay, LAL-CUN-2 (ALL). The format is cell-based. To be noted: ALL; Table 5 comparison. On the procedure:
as §1, §2, §3

The next assay deals with OCI-AML-2. Kind of assay: Cell proliferation assay, OCI-AML-2 (AML). The format is cell-based. The following applies: Homo sapiens, OCI-AML2, Table 5 comparison. How it is done: as §1, §2, §3, §4

Chain of DNMT1 (P26358 whole entry, species assumed): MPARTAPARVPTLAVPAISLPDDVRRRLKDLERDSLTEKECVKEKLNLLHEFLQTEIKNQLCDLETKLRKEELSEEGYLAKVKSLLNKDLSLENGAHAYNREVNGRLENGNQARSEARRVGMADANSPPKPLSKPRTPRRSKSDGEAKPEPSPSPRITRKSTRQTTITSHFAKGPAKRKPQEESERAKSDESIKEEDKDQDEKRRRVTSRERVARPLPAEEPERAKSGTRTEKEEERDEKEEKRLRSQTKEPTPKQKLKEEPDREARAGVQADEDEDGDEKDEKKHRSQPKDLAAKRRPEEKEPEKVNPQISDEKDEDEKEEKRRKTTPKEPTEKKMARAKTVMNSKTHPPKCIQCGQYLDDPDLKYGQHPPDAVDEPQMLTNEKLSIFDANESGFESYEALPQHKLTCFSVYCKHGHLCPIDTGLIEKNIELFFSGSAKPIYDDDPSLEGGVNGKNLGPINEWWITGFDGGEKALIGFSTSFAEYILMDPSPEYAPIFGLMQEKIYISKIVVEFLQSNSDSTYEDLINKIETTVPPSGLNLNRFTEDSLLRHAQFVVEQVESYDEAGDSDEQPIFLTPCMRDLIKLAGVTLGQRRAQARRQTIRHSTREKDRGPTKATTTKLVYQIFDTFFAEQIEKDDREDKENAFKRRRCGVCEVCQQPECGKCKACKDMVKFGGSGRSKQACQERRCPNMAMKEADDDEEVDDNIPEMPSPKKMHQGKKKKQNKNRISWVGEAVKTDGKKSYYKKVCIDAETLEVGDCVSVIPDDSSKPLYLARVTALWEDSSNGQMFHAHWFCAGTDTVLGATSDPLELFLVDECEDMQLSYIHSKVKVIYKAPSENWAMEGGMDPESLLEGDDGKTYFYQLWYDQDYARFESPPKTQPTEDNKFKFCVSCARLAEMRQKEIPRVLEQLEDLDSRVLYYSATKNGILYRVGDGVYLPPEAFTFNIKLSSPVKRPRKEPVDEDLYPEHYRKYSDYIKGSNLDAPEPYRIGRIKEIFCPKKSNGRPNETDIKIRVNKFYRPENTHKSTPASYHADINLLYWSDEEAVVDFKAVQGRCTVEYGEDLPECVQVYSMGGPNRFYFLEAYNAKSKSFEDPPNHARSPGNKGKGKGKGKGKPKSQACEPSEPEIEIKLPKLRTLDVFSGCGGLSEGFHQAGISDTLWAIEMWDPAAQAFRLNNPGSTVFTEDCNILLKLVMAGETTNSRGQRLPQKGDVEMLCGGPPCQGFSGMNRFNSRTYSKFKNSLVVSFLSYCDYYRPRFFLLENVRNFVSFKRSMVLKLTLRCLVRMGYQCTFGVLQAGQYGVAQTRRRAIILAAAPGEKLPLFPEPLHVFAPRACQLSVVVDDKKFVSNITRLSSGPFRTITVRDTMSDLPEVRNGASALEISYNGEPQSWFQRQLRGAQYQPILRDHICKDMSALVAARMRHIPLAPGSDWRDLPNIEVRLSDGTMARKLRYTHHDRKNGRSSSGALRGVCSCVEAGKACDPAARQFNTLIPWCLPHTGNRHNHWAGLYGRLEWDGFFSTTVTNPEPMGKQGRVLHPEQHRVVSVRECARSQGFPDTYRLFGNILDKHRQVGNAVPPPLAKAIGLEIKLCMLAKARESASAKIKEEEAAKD
Chain of DNMT3A (Q9Y6K1 whole entry, looked up, species assumed): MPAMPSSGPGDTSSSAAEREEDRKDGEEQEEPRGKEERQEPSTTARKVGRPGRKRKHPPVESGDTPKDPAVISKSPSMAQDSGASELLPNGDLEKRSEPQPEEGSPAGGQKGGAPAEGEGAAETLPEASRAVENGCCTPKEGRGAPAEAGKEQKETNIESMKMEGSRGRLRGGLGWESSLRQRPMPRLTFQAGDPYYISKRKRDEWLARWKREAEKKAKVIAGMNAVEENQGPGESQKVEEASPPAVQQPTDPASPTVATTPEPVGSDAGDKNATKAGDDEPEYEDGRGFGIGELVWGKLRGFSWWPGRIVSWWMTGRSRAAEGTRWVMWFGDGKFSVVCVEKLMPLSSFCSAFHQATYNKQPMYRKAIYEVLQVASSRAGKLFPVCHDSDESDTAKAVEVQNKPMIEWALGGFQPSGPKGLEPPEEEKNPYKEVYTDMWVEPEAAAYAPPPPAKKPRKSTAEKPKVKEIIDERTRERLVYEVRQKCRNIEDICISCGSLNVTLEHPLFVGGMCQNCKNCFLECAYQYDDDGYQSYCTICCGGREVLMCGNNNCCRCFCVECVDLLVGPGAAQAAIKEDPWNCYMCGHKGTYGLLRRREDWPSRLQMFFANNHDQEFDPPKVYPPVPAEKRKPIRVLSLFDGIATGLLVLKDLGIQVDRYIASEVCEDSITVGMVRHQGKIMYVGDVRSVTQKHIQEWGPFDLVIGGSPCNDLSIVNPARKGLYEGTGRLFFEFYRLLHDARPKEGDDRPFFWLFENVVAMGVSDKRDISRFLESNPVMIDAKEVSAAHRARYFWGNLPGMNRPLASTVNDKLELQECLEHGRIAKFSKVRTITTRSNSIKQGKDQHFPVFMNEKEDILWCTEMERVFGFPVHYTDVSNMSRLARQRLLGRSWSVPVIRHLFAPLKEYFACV

In the case of `COc1cc2nc(N3CCCN(C)CC3)nc(NC3CCN(Cc4ccccc4)CC3)c2cc1OC` [BIX01294, N-(1-benzyl-4-piperidyl)-6,7-dimethoxy-2-(4-methyl-1,4-diazepan-1-yl)quinazolin-4-amine], the IC50 on DNMT3A and on DNMT1 was more than 100 µM throughout. In addition, the “Folding respect to untreated (reprogramming efficiency, AP+ colonies)” value was 1.29 with BJ human fibroblasts [1] and 1.04 with BJ human fibroblasts [2]. Further, the GI50 with JJN3 is not below 10 µM; in the assay on CEMO-1, 1 to 10 µM; in the assay with MV411, not below 10 µM; in the assay with U266, not below 10 µM; in the assay with LAL-CUN-2 it was 1 to 10 µM; in the assay on OCI-AML-2, 1 to 10 µM.
